Values joined by “and” are separate entries in the source; they are usually repeats but may differ in a detail not shown here. Identical values can stand only once. “Also recorded” adds a separate entry of the source. Positions of bridges follow the written chain, without caps; N, C: chain ends.
How the values were obtained:
cerebellar neurons [1] = assay: Neurite outgrowth assay: antagonism of MAG-Fc-mediated inhibition of neurite outgrowth, neurons over 3T3 monolayers; format: cell-based, rat; settings: MAG-Fc 20 μg/ml; for antagonism of MAG-Fc inhibition of neurite outgrowth: peptide 100 μg/ml, ~23-27 hr, FIG. 2; for peptide concentration with maximal promotion of neurite outgrowth / peptide concentration with significant promotion of neurite outgrowth: FIG. 5; for antagonism of inhibitory activity of MAG-Fc: peptide 50 μg/ml (60 μM)
cerebellar neurons [2] = assay: as above; format: cell-based, rat; settings: for effectiveness in antagonizing MAG inhibition relative to NRL2: compared with parental peptide NRL2
Description: (§1) Cerebellar neurons isolated from postnatal day 2/3 rat pups were cultured over monolayers of 3T3 cells (Doherty et al. (1991) Neuron 6(2):247-58) essentially as previously described (Williams et al. (1994) Neuron 13(3):583-94). Monolayers were established by seeding ˜80,000 cells into individual chambers of an eight-chamber tissue culture slide coated with poly-L-lysine and fibronectin. The cell lines, and monolayers, were maintained in Dulbecco's modified Eagle's medium supplemented with 10% fetal calf serum (FCS). Cocultures were established by removing the media from the monolayers and seeding ˜6000 dissociated cerebellar neurons into each well in SATO medium (modified from Doherty et al. (1990) Neuron 5(2):209-19; Dulbecco's modified Eagle's medium supplemented with 2% FBS, 33% bovine albumin, 0.62 μg/ml progesterone, 161 μg/ml putrescine, 4 μg/ml L-thyroxine, 0.387 μg/ml selenium, and 3.37 μg/ml tri-iodo-thyronine (components from Sigma-Aldrich, St. Louis, Mo.)). Monolayers were established for 24 hours prior to addition of the neurons and the cultures were maintained for ˜23-27 hr. Following careful fixation with 4% paraformaldehyde, the neurons were immunostained with a GAP-43 antibody, and the mean length of the longest neurite per cell was measured for ˜120-150 neurons, again as previously described (Williams et al. (1994) Neuron 13(3):583-94).
(§2) Synthetic peptides were all obtained from a commercial supplier (Multiple Peptide Systems, San Diego, Calif.). All peptides were purified to the highest grade by reverse-phase HPLC and obtained at the highest level of purity (>97%). With all peptides, there was no indication of higher molecular weight species. Where peptide sequences are underlined, this denotes a peptide that has been cyclized via a disulfide bond between the given cysteine residues. All peptides were acetylated (e.g., denoted with “N—Ac—”) and amide blocked (e.g., denoted with “—NH2”). Recombinant MAG-Fc chimera was obtained from R&D Systems (Minneapolis, Minn.) and used at final concentrations ranging from 5-25 μg/ml. The monoclonal antibody to GT1b (clone GMR5) was obtained from Seikagaku America (Falmouth, Mass.) and was used at a final concentration of 20 μg/ml. All reagents were diluted into the coculture media and, in general, added to the cultures just prior to the plating of the neurons.
MAG was the first inhibitory component of myelin to be identified based on its ability to inhibit neurite outgrowth from postnatal rat cerebellar neurons (Mukhopadhyay et al. (1994) Neuron 13(3):757-67). […] NgR1 function is required for MAG inhibition of neurite outgrowth (Domeniconi et al. (2002) Neuron 35(2):283-90; Liu et al. (2002) Science 297:1190-93). Consequently, in order to determine if the mimetic peptides could antagonize, (e.g., reverse, decrease, reduce, prevent, etc.) NgR1 function (e.g., reverse NgR1-ligand-mediated inhibition of axonal growth), the peptides were tested for their ability to antagonize MAG-mediated inhibition of axonal growth. […] The ability of the NRL peptides to antagonize MAG-mediated inhibition of axonal growth was tested in a number of independent experiments. […] In order to evaluate the efficacy of the NRL2 peptide, the ability of various concentrations of NRL2 to overcome the inhibitory activity of 25 μg/ml of the soluble MAG-Fc chimera was tested. Results obtained from at least three independent experiments have been pooled to generate FIG. 3.

cerebellar neurons [3] = assay: Neurite outgrowth assay: substance alone in coculture media, neurons over 3T3 monolayers; format: cell-based, rat; settings: without MAG-Fc; for effect on neurite outgrowth in control media: peptide alone
Description: as §1, §2
MAG was the first inhibitory component of myelin to be identified based on its ability to inhibit neurite outgrowth from postnatal rat cerebellar neurons (Mukhopadhyay et al. (1994) Neuron 13(3):757-67). […] NgR1 function is required for MAG inhibition of neurite outgrowth (Domeniconi et al. (2002) Neuron 35(2):283-90; Liu et al. (2002) Science 297:1190-93). […]

cerebellar neurons [4] = assay: Neurite outgrowth assay: antagonism of inhibition by anti-GT1b antibody; format: cell-based, rat; settings: peptide 100 μg/ml; anti-GT1b up to 40 μg/ml; FIG. 4
Description: Cerebellar neurons isolated from postnatal day 2/3 rat pups were cultured over monolayers of 3T3 cells (Doherty et al. (1991) Neuron 6(2):247-58) essentially as previously described (Williams et al. (1994) Neuron 13(3):583-94). Monolayers were established by seeding ˜80,000 cells into individual chambers of an eight-chamber tissue culture slide coated with poly-L-lysine and fibronectin. The cell lines, and monolayers, were maintained in Dulbecco's modified Eagle's medium supplemented with 10% fetal calf serum (FCS). Cocultures were established by removing the media from the monolayers and seeding ˜6000 dissociated cerebellar neurons into each well in SATO medium (modified from Doherty et al. (1990) Neuron 5(2):209-19; Dulbecco's modified Eagle's medium supplemented with 2% FBS, 33% bovine albumin, 0.62 μg/ml progesterone, 161 μg/ml putrescine, 4 μg/ml L-thyroxine, 0.387 μg/ml selenium, and 3.37 μg/ml tri-iodo-thyronine (components from Sigma-Aldrich, St. Louis, Mo.)). Monolayers were established for 24 hours prior to addition of the neurons and the cultures were maintained for ˜23-27 hr. Following careful fixation with 4% paraformaldehyde, the neurons were immunostained with a GAP-43 antibody, and the mean length of the longest neurite per cell was measured for ˜120-150 neurons, again as previously described (Williams et al. (1994) Neuron 13(3):583-94). […]

myelin = assay: Antagonism of the inhibitory activity of myelin (data not shown); format: cell-based

## N-Ac-CAGRDLKRC-NH2 (disulfide 1-9; SMILES CC(=O)N[C@H]1CSSC[C@@H](C(N)=O)NC(=O)[C@H](CCCNC(=N)N)NC(=O)[C@H](CCCCN)NC(=O)[C@H](CC(C)C)NC(=O)[C@H](CC(=O)O)NC(=O)[C@H](CCCNC(=N)N)NC(=O)CNC(=O)[C@H](C)NC1=O) [NRL4]
Cerebellar neurons [1]
  antagonism of MAG-Fc inhibition of neurite outgrowth: MAG-Fc also substantially inhibited neurite outgrowth

## N-Ac-CLQKFRGSSC-NH2 (disulfide 1-10; SMILES CC(=O)N[C@H]1CSSC[C@@H](C(N)=O)NC(=O)[C@H](CO)NC(=O)[C@H](CO)NC(=O)CNC(=O)[C@H](CCCNC(=N)N)NC(=O)[C@H](Cc2ccccc2)NC(=O)[C@H](CCCCN)NC(=O)[C@H](CCC(N)=O)NC(=O)[C@H](CC(C)C)NC1=O) [NRL2]
Cerebellar neurons [2]; four disulfide-constrained NgR1 loop peptides
  activity as MAG antagonist (summary in discussion): effective MAG antagonist
Cerebellar neurons [3]
  effect on neurite outgrowth in control media: no effect
Cerebellar neurons [3]; tested at up to 200 μg/ml, FIG. 3
  effect on control neurite outgrowth: little effect
Cerebellar neurons [1]
  antagonism of MAG-Fc inhibition of neurite outgrowth: largely antagonized
Cerebellar neurons [4]
  antagonism of inhibitory effects of anti-GT1b antibody: reversed; also recorded: just as effective

## N-Ac-CKFRGSC-NH2 (disulfide 1-7; SMILES CC(=O)N[C@H]1CSSC[C@@H](C(N)=O)NC(=O)[C@H](CO)NC(=O)CNC(=O)[C@H](CCCNC(=N)N)NC(=O)[C@H](Cc2ccccc2)NC(=O)[C@H](CCCCN)NC1=O) [NRL2a]
Cerebellar neurons [2]
  effectiveness in antagonizing MAG inhibition relative to NRL2: as effective as NRL2
Cerebellar neurons [2]; listed as N-Ac-CKFRGSC-NH2
  effectiveness in antagonizing MAG inhibition relative to NRL2: as effective as the longer parental peptide
Cerebellar neurons [3]
  effect on neurite outgrowth in control media: no effect
Cerebellar neurons [1]
  peptide concentration with maximal promotion of neurite outgrowth: 50 μg/ml and 60 μM
  peptide concentration with significant promotion of neurite outgrowth: 25 μg/ml and 30 μM
  antagonism of inhibitory activity of MAG-Fc: effectively antagonized

## N-Ac-CYNEPKVTC-NH2 (disulfide 1-9; SMILES CC(=O)N[C@H]1CSSC[C@@H](C(N)=O)NC(=O)[C@H]([C@@H](C)O)NC(=O)[C@H](C(C)C)NC(=O)[C@H](CCCCN)NC(=O)[C@@H]2CCCN2C(=O)[C@H](CCC(=O)O)NC(=O)[C@H](CC(N)=O)NC(=O)[C@H](Cc2ccc(O)cc2)NC1=O) [NRL1]
Cerebellar neurons [1]
  antagonism of MAG-Fc inhibition of neurite outgrowth: MAG-Fc also substantially inhibited neurite outgrowth

## N-Ac-CSLPQRLAC-NH2 (disulfide 1-9; SMILES CC(=O)N[C@H]1CSSC[C@@H](C(N)=O)NC(=O)[C@H](C)NC(=O)[C@H](CC(C)C)NC(=O)[C@H](CCCNC(=N)N)NC(=O)[C@H](CCC(N)=O)NC(=O)[C@@H]2CCCN2C(=O)[C@H](CC(C)C)NC(=O)[C@H](CO)NC1=O) [NRL3]
Cerebellar neurons [1]
  antagonism of MAG-Fc inhibition of neurite outgrowth: MAG-Fc also substantially inhibited neurite outgrowth

## NGF: nerve growth factor
myelin
  antagonism of the inhibitory activity of myelin: do not antagonize

## Ac-CTDIKGKEC-NH2 (cysteine pairing not given here)
myelin
  antagonism of the inhibitory activity of myelin: do not antagonize

## N-Ac c[sGrfkq]-NH2 (XGXXXX; not fully specified; cyclised or stapled) [hriNRL2]
Cerebellar neurons [1]; increasing peptide concentrations, FIG. 6
  reversal of MAG-mediated inhibition of neurite outgrowth: reverse MAG-mediated inhibition of neurite outgrowth

## N-Ac-CQKFRGC-NH2 (disulfide 1-7; SMILES CC(=O)N[C@H]1CSSC[C@@H](C(N)=O)NC(=O)CNC(=O)[C@H](CCCNC(=N)N)NC(=O)[C@H](Cc2ccccc2)NC(=O)[C@H](CCCCN)NC(=O)[C@H](CCC(N)=O)NC1=O) [NRL2b]
Cerebellar neurons [2]
  effectiveness in antagonizing MAG inhibition relative to NRL2: as effective as NRL2
Cerebellar neurons [2]; listed as N-Ac-CQKFRGC-NH2
  effectiveness in antagonizing MAG inhibition relative to NRL2: as effective as the longer parental peptide
Cerebellar neurons [3]
  effect on neurite outgrowth in control media: no effect
Cerebellar neurons [1]
  peptide concentration with maximal promotion of neurite outgrowth: 50 μg/ml and 60 μM
  peptide concentration with significant promotion of neurite outgrowth: 25 μg/ml and 30 μM
  antagonism of inhibitory activity of MAG-Fc: effectively antagonized
